According to US10342796B2, “Acrylanilide derivative, preparation method, and applications thereof in pharmacy” (Ancureall Pharmaceutical (Shanghai) Co., Ltd., priority 2015, dated 2019):
Read-outs that look alike come from different tables or passages of the source.

Key:
Test in all cases: Growth inhibition GI50 in vitro (CCK8/MTT, 72 h)
[1] = system: SNU1040 (HER2 V777M positive); format: cell-based; conditions: Homo sapiens, read-out: GI50 SNU-1040 (HER2 V777M)
[2] = system: HEL (Jak2 V167F); format: cell-based; conditions: Homo sapiens
Procedure: Jak2 is a kind of non-receptor PTK (Janus Kinase 2) with great significance in cell growth, differentiation and transformation. Jak2 gene mutation often leads to bone marrow hyperplasia and transformation. Especially Jak2 V167F mutation is common for clinical patients. Human erythroleukemia cell line HEL expressing Jak2 V167F was cultured with 1×RPMI1640 complete medium (supplement with 10% FBS).
(§1) The suspension cells were collected by centrifugation. The supernatant was discard and the cell pellet was resuspended and counted. Different cell concentrations (5˜10×10^4 cells/mL) were prepared according to the growth cycle of each cell line and then seeded on a 96-well plate (Corning), 100 μL/well. The cells were incubated over night at 37° C., 5% CO2. The compounds were added to the cells on the second day with 2 wells in parallel. The final concentration of organic solvent shall not exceed 1%. The cells were continually incubated for 72 h, and then subjected to MTT assay.
(§2) The present compounds and the reference compounds were dissolved with DMSO (Sigma), respectively. […] The storage concentration of compounds was 10 mM and kept at −20° C. They were diluted by 2 times or 10 times with serial dilution before using.
(§3) Dojindo CCK8 reagent kit was used as MTT assay. […] FC meter was used as microplate reader.
(§4) Adherent cell culture medium was discard and immediately replaced with fresh prepared medium which contains 10% CCK8 reagent (100 μL/well). For the suspension cells, CCK8 was directly added to 10% of the final concentration. The cells were continually incubated for 1˜4 h. When the color of control wells turned to dark yellow, the absorption value was measured at OD450 nm. The cell growth rate was calculated according to the following formula: cell growth rate (%)=100*(T−T0)/(C−T0), T=optical density of drug treatment cell well—optical density of blank control well; T0=optical density of cell well before drug treatment—optical density of blank control well; C=optical density of cell well of solvent control group—optical density of blank control well. […] The experiment was independently repeated 1˜3 times, and subject to biological statistical analysis.
(§5) Growth inhibition assay was conducted in the cell lines shown Table 14 with the different oncogene mutations. Each compound started at 1000 nM as an initial concentration and was diluted by 2 times with serial dilution to 0.03 nM.

[3] = system: Ramos (BTK); format: cell-based, human; conditions: for GI50: Homo sapiens, Ramos, BTK; for inhibition effects: BTK+ Ramos cells
Procedure: RAMOS is human B lymphocytic leukemia cell line positively expressing BTK. It was cultured with 1×RPMI1640 complete medium (supplement with 10% FBS).
as §1, §2, §3, §4, §5

[4] = system: MV4-11 (FLT3-ITD); format: cell-based, human; conditions: for GI50: Homo sapiens, MV4-11, FLT3-ITD; for inhibition effects: FLT3-ITD+ MV4-11 cells
Procedure: FLT3 is a kind of PTK and about 20-30% of patients with acute myelocytic leukemia (AML) in clinic express FLT3-ITD mutation protein. FLT3-ITD positive cell line MV4-11 was cultured with 1×RPMI1640 complete medium (supplement with 10% FBS).
as §1, §2, §3, §4, §5

[5] = system: SH-SY5Y (ALK F1174L); format: cell-based; conditions: Homo sapiens, EGFR wt
Procedure: Neuroblastoma cell line SH-SY5Y (ALK F1174L positive) (Shanghai Cell Bank of Chinese Academy of Sciences) was cultured with MEM complete medium (supplement with 10% FBS, 1% NEAA, 1% double-antibiotics and 1 mM of sodium pyruvate).
as §1, §2, §3, §4, §5

[6] = system: Karpas-299 (NPM-ALK); format: cell-based; conditions: Homo sapiens, Karpas-299, EGFR wt
[7] = system: H1581 (FGFR1 amp); format: cell-based; conditions: Homo sapiens, NCI-H1581, H1581, EGFR wt
Procedure: (§6) Human NSCLC cell line NCI-H1581(ATCC) contains FGFR1 gene amplification and high expression. Human gastric cancer cell line SNU-16(ATCC) contains FGFR2 gene amplification and high expression. They were cultured with 1×RPMI1640 complete medium (10% FBS), respectively.
as §1, §2, §3, §4, §5

[8] = system: SNU-16 (FGFR2 amp); format: cell-based; conditions: Homo sapiens, SNU-16, EGFR wt
Procedure: as §6, §1, §2, §3, §4, §5

[9] = HEL, Jak2 V167F, read-out: GI50
[10] = Table 16, 1000 nM to 0.03 nM serial dilution

SMILES | GI50 [3] [nM] | GI50 [4] [nM] | GI50 [5] [nM] | GI50 [6] [nM] | GI50 [7] [nM] | GI50 [8] [nM] | GI50 [1, 10] [nM] | GI50 [1] [nM] | GI50 [2] [nM] | GI50 [2, 9] [nM] | inhibition effects [3] | inhibition effects [4]
C=CC(=O)Nc1cc(Nc2nccc(-c3cn(C)c4ccccc34)n2)c(OC)cc1N(C)CCN(C)C [AZD9291, reference compound] | 937 | > 1000 | > 1000 | > 1000 | > 1000 | > 1000 |  | 156 | > 1000 |  |  | 
C=CC(=O)Nc1cc(Nc2nccc(Nc3ccc(OCc4ccccn4)c(Cl)c3)n2)c(OC)cc1N(C)CCN(C)C [Compound 18, N-(5-(4-(3-chloro-4-(pyridin-2-methoxyl)phenylamino)pyrimidin-2-ylamino)-2-((2-(dimethylamino)ethyl)(methyl)amino)-4-methoxyl-phenyl)-acrylamide] | 937 | > 1000 | > 1000 | > 1000 | > 1000 | > 1000 |  |  |  | > 1000 |  | 
C=CC(=O)Nc1cc(Nc2ncc(Cl)c(Nc3ccc(OCc4ccccn4)c(Cl)c3)n2)c(OC)cc1N(C)CCN(C)C [Compound 19, N-(5-(5-chloro-4-(3-chloro-4-(pyridin-2-methoxyl)phenylamino)-pyrimidin-2-ylamino)-2-((2-(dimethylamino)ethyl)(methyl)amino)-4-methoxyl-phenyl)-acrylamide] |  | > 1000 | > 1000 | 500 | > 1000 | > 1000 |  |  |  | > 1000 |  | 
C=CC(=O)Nc1cc(Nc2nccc(-n3ccc4c(OC)cccc43)n2)c(OC)cc1N(C)CCN(C)C [Compound 99, N-(5-(4-(4-methoxyl-1H-indol-1-yl)-pyrimidin-2-ylamino)-2-(2-(dimethylamino-ethyl)-methyl-amino)-4-methoxyl-phenyl)-acrylamide] |  |  |  |  |  |  | 19.5 |  |  |  |  | 
C=CC(=O)Nc1cc(Nc2nccc(-n3cnc4ccccc43)n2)c(OC)cc1N(C)CCN(C)C [Compound 106] | 234 | > 1000 | > 1000 | > 1000 | > 1000 | > 1000 |  |  |  | > 1000 |  | 
C=CC(=O)Nc1cc(Nc2cc(Nc3cc(OC)c(Cl)cc3Cl)ncn2)c(OC)cc1N(C)CCN(C)C [Compound 136, N-(5-(6-(2,4-dichloro-5-methoxyl-phenylamino)-pyrimidin-4-ylamino)-2-((2-dimethylamino-ethyl)-methyl-amino)-4-methoxyl-phenyl)-acrylamide] |  |  |  |  |  |  | 16.2 |  |  |  |  | 
C=CC(=O)Nc1cc(Nc2cc(Nc3ccc(F)c(Cl)c3)ncn2)c(OC)cc1N(C)CCN(C)C [Compound 140, N-(5-(6-(3-chloro-4-fluoro-phenylamino)-pyrimidin-4-ylamino)-2-((2-dimethylamino-ethyl)-methyl-amino)-4-methoxyl-phenyl)-acrylamide] | 58.6 | > 1000 | > 1000 | > 1000 | > 1000 | > 1000 |  |  |  | > 1000 | moderate inhibition effects | moderate inhibition effects
C=CC(=O)Nc1cc(Nc2cc(-c3cn(C(C)C)c4ccccc34)ncn2)c(OC)cc1N(C)CCN(C)C [Compound 183] | 78.1 | > 1000 | > 1000 | > 1000 | > 1000 | > 1000 |  |  |  | > 1000 | moderate inhibition effects | moderate inhibition effects
C=CC(=O)Nc1cc(Nc2nccc(-n3ccc4c(OCCOC)cccc43)n2)c(OC)cc1N(C)CCN(C)C [Compound 205, N-(5-(4-(4-(2-methoxyl-ethoxyl)-1H-indol-1-yl)-pyrimidin-2-ylamino)-2-(2-(dimethylamino-ethyl)-methyl-amino)-4-methoxyl-phenyl)-acrylamide] |  |  |  |  |  |  | 14.3 |  |  |  |  | 
C=CC(=O)Nc1cc(Nc2cc(Nc3cc(F)c(OC)c(Cl)c3)ncn2)c(OC)cc1N(C)CCN(C)C [Compound 236, N-(5-(6-(3-chloro-5-fluoro-4-methoxyphenylamino)-pyrimidin-4-yl-amino)-2-((2-dimethylamino-ethyl)-methyl-amino)-4-methoxyl-phenyl)-acrylamide] |  |  |  |  |  |  | 5.42 |  |  |  |  | 

Now from value to molecule, other results behind:

GI50 [3] [nM] | GI50 [4] [nM] | GI50 [5] [nM] | GI50 [6] [nM] | GI50 [7] [nM] | GI50 [8] [nM] | GI50 [1, 10] [nM] | SMILES | GI50 [1] [nM] | GI50 [2] [nM] | GI50 [2, 9] [nM] | inhibition effects [3] | inhibition effects [4]
234 | > 1000 | > 1000 | 500 | > 1000 | > 1000 |  | C=CC(=O)Nc1cc(Nc2nccc(Nc3cccc(Cl)c3)n2)c(OC)cc1N(C)CCN(C)C [Compound 2, N-(5-(4-(3-chloro-phenylamino)-pyrimidin-2-ylamino)-2-(2-(dimethylamino-ethyl)-methyl-amino)-4-methoxyl-phenyl)-acrylamide] |  |  | > 1000 |  | 
96.6 | 124 | > 1000 | > 1000 | > 1000 | > 1000 |  | C=CC(=O)Nc1cc(Nc2ncnc(Nc3cccc(F)c3)n2)c(OC)cc1N(C)CCN(C)C [Compound 114, N-(5-(4-(3-fluoro-phenylamino)-[1,3,5]triazin-2-ylamino)-2-((2-dimethylamino-ethyl)-methyl-amino)-4-methoxyl-phenyl)-acrylamide] |  |  | > 1000 | moderate inhibition effects | moderate inhibition effects
148 | 156 |  | 500 | > 1000 | > 1000 |  | C=CC(=O)Nc1cc(Nc2ncnc(Nc3cccc(Br)c3)n2)c(OC)cc1N1CCC(N2CCCC2)CC1 [Compound 118] |  |  | > 1000 | moderate inhibition effects | moderate inhibition effects
46.8 | > 1000 | > 1000 | > 1000 | > 1000 | > 1000 |  | C=CC(=O)Nc1cc(Nc2cc(Nc3ccc(F)c(Cl)c3)ncn2)c(OC)cc1N1CCN(C2CCN(C)CC2)CC1 [Compound 147, N-(5-(6-(3-chloro-4-fluoro-phenylamino)-pyrimidin-4-ylamino)-4-methoxyl-2-(4-(1-methylpiperidin-4-yl)-piperazin-1-yl)-phenyl)-acrylamide] |  |  | > 1000 |  | 
